In article PMC7876048, “Mutant-selective degradation by BRAF-targeting PROTACs” (Nature Communications, 2021):

Assays:
[1] = system: H1666 cells (Class 3, BRAF^G466V); test: Cell proliferation (MTS) assay; format: cell-based; details: 5 days
[2] = biological target: T1, NanoLuc-BRAF^V600E : HaloTag-VHL (HEK293T cells) (Homo sapiens, UniProt P15056+P40337, V600E); test: NanoBRET ternary complex assay; format: cell-based; details: cells expressing BRAF^V600E, 3 h
T1 construct: Full-length BRAF (WT and V600E) was cloned into the pNLF1-C [CMV/Hygro] vector; host or cells: HEK 293 T, transient co-transfection
T1 sequence (P15056 whole entry V600E): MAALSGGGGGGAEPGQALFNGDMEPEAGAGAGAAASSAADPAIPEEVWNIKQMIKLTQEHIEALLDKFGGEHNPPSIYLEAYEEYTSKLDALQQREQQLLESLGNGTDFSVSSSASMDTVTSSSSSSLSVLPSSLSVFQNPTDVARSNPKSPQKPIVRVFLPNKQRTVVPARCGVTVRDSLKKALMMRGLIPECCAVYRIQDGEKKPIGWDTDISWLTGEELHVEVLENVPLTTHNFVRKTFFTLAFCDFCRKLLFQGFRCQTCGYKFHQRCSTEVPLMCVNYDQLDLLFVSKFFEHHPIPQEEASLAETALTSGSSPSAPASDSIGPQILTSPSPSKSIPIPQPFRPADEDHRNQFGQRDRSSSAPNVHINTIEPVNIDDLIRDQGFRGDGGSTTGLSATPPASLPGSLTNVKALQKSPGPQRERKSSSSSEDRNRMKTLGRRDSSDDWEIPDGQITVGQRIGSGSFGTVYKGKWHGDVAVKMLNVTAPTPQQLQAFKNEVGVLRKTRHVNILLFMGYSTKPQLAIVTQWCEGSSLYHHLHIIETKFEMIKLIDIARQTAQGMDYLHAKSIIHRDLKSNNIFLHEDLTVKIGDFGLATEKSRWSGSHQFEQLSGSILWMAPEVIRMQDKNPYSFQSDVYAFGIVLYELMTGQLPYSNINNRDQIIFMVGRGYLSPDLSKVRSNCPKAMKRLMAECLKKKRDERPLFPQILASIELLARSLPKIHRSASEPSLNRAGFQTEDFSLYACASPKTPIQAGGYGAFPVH
T1 sequence (P40337 whole entry): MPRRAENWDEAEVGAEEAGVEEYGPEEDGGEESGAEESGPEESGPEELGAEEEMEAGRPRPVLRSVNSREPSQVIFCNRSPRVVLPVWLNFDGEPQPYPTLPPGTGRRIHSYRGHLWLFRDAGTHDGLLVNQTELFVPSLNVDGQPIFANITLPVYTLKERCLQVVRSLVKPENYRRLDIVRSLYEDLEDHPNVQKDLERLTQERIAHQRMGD
T1 sequence (Q15369 whole entry partner): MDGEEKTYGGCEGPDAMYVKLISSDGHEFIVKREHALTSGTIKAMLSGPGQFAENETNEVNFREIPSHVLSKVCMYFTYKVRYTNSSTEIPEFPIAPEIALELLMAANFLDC
T1 sequence (Q15370 whole entry partner): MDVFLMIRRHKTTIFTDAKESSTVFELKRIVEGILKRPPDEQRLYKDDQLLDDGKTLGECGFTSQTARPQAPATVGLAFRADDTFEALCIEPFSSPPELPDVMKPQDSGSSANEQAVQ
Description: (§1) Full-length BRAF (WT and V600E) was cloned into the pNLF1-C [CMV/Hygro] vector. HEK 293 T cells were seeded into 6 well dishes (~75% confluent) and co-transfected with HaloTag-VHL (Promega; N273A) and C-terminal nanoLUC-tagged BRAF. Transfection was performed using a ratio of 1:2 DNA to Lipofectamine 2000. After 24 h, 1 × 10^4 cells were seeded into white 96 well plates (Costar Cat# 3610) in Opti-MEM™ I Reduced Serum Medium supplemented with 4% FBS and […] HaloTag NanoBRET 618 ligand or DMSO. The next day, the cells were pre-treated with 2 μM MG-132 for 1 h then treated with indicated amount of drug for 3 h. 6X NanoBRET Nano-Glo Substrate in Opti-MEM was then added to each well and the plate was read using a Perkin Elmer Envision. Dual filtered luminescence was measured with a 430 nm (donor, […]) and a 615 nm filter (acceptor, […]). Background corrected (cells without HaloTag 618 ligand) nanoBRET ratios were calculated to determine intracellular ternary complex formation.

[3] = biological target: T2, NanoLuc-BRAF^WT : HaloTag-VHL (HEK293T cells) (Homo sapiens, UniProt P15056); test: NanoBRET ternary complex assay; format: cell-based; details: cells expressing BRAF^WT, concentrations as high as 10 μM, 3 h
T2 construct: Full-length BRAF (WT and V600E) was cloned into the pNLF1-C [CMV/Hygro] vector; host or cells: HEK 293 T, transient co-transfection
Description: as §1

[4] = biological target: T3, BRAF^WT (A-431 cells, HER1 amplification) (Homo sapiens, UniProt P15056); test: BRAF^WT degradation by immunoblot in A-431 cells; format: cell-based
T3 construct: endogenous in cells; host or cells: A-431
T3 sequence (P15056 whole entry): as the sequence (P15056 whole entry V600E) above, with E600V counted along it
Description: Cells were plated in 6 well dishes (5 × 10^5–8 × 10^5 cells) and allowed to attach overnight. […] The plates were then placed on ice and washed 1x with chilled PBS and lysed in buffer containing 25 mM Tris-HCl [pH 7.4], 0.25% sodium deoxycholate, 150 mM NaCl, 1% Triton X-100, supplemented with protease inhibitors (1x Roche protease inhibitor cocktail) and phosphatase inhibitors (10 mM NaF, 1 mM Na3OV4, and 20 mM β-glycerophosphate). Lysates were then cleared at 21,000 g for 10 min at 4 °C. Protein concentrations of the supernatants were then quantified using a Pierce BCA Protein Assay. 12–40 µg of protein were separated using a gradient (4–20%) Criterion TGX precast gel and transferred unto a nitrocellulose membrane. The membranes were then blocked in 5% non-fat milk in TBST (Tris-buffered Saline with Tween 20) for 1 h before probing with the indicated primary antibody overnight. Membranes were imaged using Bio-Rad Image Lab software using ECL prime detection reagent (GE Healthcare, RPN2232 or ThermoScientific, 34095).
Western blot data was quantified by using the band feature in Image Lab, and values were averaged and analyzed in GraphPad Prism. DC50 and DMAX values were fitted using a three parameter [inhibitor] versus response and reported directly from the Prism output. Mean ± SD and unpaired t-tests were performed in GraphPad Prism.

[5] = system: VBC:PROTAC:BRAF ternary complex (V5-BRAF^V600E vs V5-BRAF^WT, NIH3T3 lysates); test: Cell lysate based ternary complex (GST-VBC pulldown) assay; format: binding; details: 5000 nM SJF-0628
Description: Glutathione sepharose 4B was washed twice with water and then blocked for 1 h at room temperature with 10% BSA in TBST. The beads were then washed again twice with TBST and once with wash buffer (50 mM HEPES pH 7.5, 150 mM NaCl, 1 mM DTT, 0.01% NP40, 5 mM MgCl2, 10% glycerol) and then purified GST-VBC was immobilized for 2 h at 4 °C at 2.5 pmole per μL of beads. The beads were then washed thrice with wash buffer, resuspended and BRAF WT or V600E protein was added at 500 nM per 50 μL reaction with 5 μL of beads. The bead:BRAF mixture was then aliquoted to separate tubes and PROTAC was added at the indicated concentration (PROTACs were intermediately diluted in 50% DMSO) and this was incubated at 4 °C for 2 h. The beads were washed 4 times with 1 mL column of TBST and then eluted with SDS loading buffer.
For experiments in which the input substrate is a whole cell lysate, the sample was prepared as follows: […] of confluent NIH3T3 cells were doxycycline induced overnight, after which the cells were washed with DPBS and lysed using lysis buffer (50 mM Tris-HCl, pH 7.4, 015 M NaCl, 1 mM EDTA,1% NP40, 10% glycerol). The lysate was cleared by centrifugation and then added to the beads as an input substrate, as above.

- BRET signal [2]: an increase in BRET signal
- BRET signal [3]: no observed increase
- degradation of BRAF^WT ([4]; A-431 cells, PROTAC concentrations greater than 1 µM): ~ 30%
- PROTAC-dependent degradation of BRAF^WT ([4]; GDC-0623 pre-treatment (500 nM, 3 h), SJF-0628 20 h, A431 (also OVCAR-8, SK-BR-3)): minimal PROTAC-dependent degradation
SMILES: CCCS(=O)(=O)Nc1ccc(F)c(C(=O)c2c[nH]c3ncc(-c4ccc(N5CCN(CC(=O)NC(C(=O)N6CC(O)CC6C(=O)NCc6ccc(-c7scnc7C)cc6)C(C)(C)C)CC5)cc4)cc23)c1F (stereo not drawn) [SJF-0628]
- cell growth inhibition [1]: 65%
- ternary complex with VHL, BRAF^V600E relative to BRAF^WT [5]: ~ 3 fold
